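Exposure lasted 48 hours, with cells grown in 96-well plates and compounds tested at five concentrations. TGI: concentration producing complete growth inhibition.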
Tests used:
Experiment in all cases: growth of human tumour cells (NCI), 48 h
MALME-3M melanoma = tested on: MALME-3M melanoma
HOP-92 NSCLC = tested on: HOP-92 NSCLC
HCT-116 colon = tested on: HCT-116 colon
HOP-62 NSCLC = tested on: HOP-62 NSCLC
U251 CNS = tested on: U251 CNS
NCI-H226 lung = tested on: NCI-H226 lung
HT29 colon = tested on: HT29 colon
UO-31 renal = tested on: UO-31 renal
DLD-1 colon = tested on: DLD-1 colon
RXF-631 renal = tested on: RXF-631 renal
UACC-257 melanoma = tested on: UACC-257 melanoma
OVCAR-8 ovarian = tested on: OVCAR-8 ovarian
SF-295 CNS = tested on: SF-295 CNS
LXFL 529 NSCLC = tested on: LXFL 529 NSCLC
SNB-75 CNS = tested on: SNB-75 CNS
HCC-2998 colon = tested on: HCC-2998 colon
RPMI-8226 leukemia = tested on: RPMI-8226 leukemia
DMS 273 small cell lung = tested on: DMS 273 small cell lung
A549 NSCLC = tested on: A549 NSCLC
A498 renal = tested on: A498 renal
SK-MEL-2 melanoma = tested on: SK-MEL-2 melanoma
SN12C renal = tested on: SN12C renal
NCI-H23 lung = tested on: NCI-H23 lung
SF-539 CNS = tested on: SF-539 CNS
OVCAR-5 ovarian = tested on: OVCAR-5 ovarian
M14 melanoma = tested on: M14 melanoma
KM12 colon = tested on: KM12 colon
HOP-18 NSCLC = tested on: HOP-18 NSCLC
OVCAR-3 ovarian = tested on: OVCAR-3 ovarian
OVCAR-4 ovarian = tested on: OVCAR-4 ovarian
SK-MEL-5 melanoma = tested on: SK-MEL-5 melanoma
SR leukemia = tested on: SR leukemia
M19-MEL melanoma = tested on: M19-MEL melanoma
COLO 205 colon = tested on: COLO 205 colon
SK-OV-3 ovarian = tested on: SK-OV-3 ovarian
MOLT-4 leukemia = tested on: MOLT-4 leukemia
NCI-H460 lung = tested on: NCI-H460 lung
786-0 renal = tested on: 786-0 renal
SNB-78 CNS = tested on: SNB-78 CNS
IGROV1 ovarian = tested on: IGROV1 ovarian
TK-10 renal = tested on: TK-10 renal
SW-620 colon = tested on: SW-620 colon
SK-MEL-28 melanoma = tested on: SK-MEL-28 melanoma
NCI-H522 lung = tested on: NCI-H522 lung
ACHN renal = tested on: ACHN renal
DMS 114 small cell lung = tested on: DMS 114 small cell lung
HCT-15 colon = tested on: HCT-15 colon
SF-268 CNS = tested on: SF-268 CNS
KM20L2 colon = tested on: KM20L2 colon
RXF 393 renal = tested on: RXF 393 renal
EKVX NSCLC = tested on: EKVX NSCLC
SNB-19 CNS = tested on: SNB-19 CNS
UACC-62 melanoma = tested on: UACC-62 melanoma
HL-60(TB) leukemia = tested on: HL-60(TB) leukemia
CAKI-1 renal = tested on: CAKI-1 renal
XF 498 CNS = tested on: XF 498 CNS
K-562 leukemia = tested on: K-562 leukemia
CCRF-CEM leukemia = tested on: CCRF-CEM leukemia
LOX IMVI melanoma = tested on: LOX IMVI melanoma

Measured: TGI

CC1(c2ccccc2)CC(c2cccc([N+](=O)[O-])c2)=NO1 (stereo not given)
not listed: KM20L2 colon | RXF 393 renal | EKVX NSCLC | SNB-19 CNS | UACC-62 melanoma | HL-60(TB) leukemia | CAKI-1 renal | XF 498 CNS | K-562 leukemia | CCRF-CEM leukemia | LOX IMVI melanoma
> 100 µM: all other assays above

C=C(C(=C)P(=S)(c1ccccc1)c1ccccc1)P(=S)(c1ccccc1)c1ccccc1
not listed: NCI-H226 lung | UO-31 renal | DLD-1 colon | RXF-631 renal | SR leukemia | LOX IMVI melanoma
> 100 µM: all other assays above

Nc1cc(=O)n(-c2ccccc2)c(=S)n1-c1ccccc1
not listed: HOP-92 NSCLC | RXF-631 renal | NCI-H23 lung | HOP-18 NSCLC | OVCAR-4 ovarian | SR leukemia | SK-MEL-28 melanoma | HL-60(TB) leukemia
> 100 µM: all other assays above

O=C1CCSC2=C1SCc1sccc12
not listed: HCT-116 colon | U251 CNS | NCI-H226 lung | HT29 colon | RXF-631 renal | DMS 273 small cell lung | A498 renal | SF-539 CNS | HOP-18 NSCLC | SR leukemia | ACHN renal
> 100 µM: all other assays above
